Experimental data reported in patent publication US20150274932A1, “USE OF BIOCIDES AS FLAME RETARDANTS” (BAYER CROPSCIENCE AG, priority 2012, published 2015).

Assay: ASTM D 1929 ignition temperature test, polypropylene beads with and without Deltamethrin
Format: physicochemical
Details: polypropylene beads with 11 wt % Deltamethrin and 2 wt % Bumetrizole vs pure polypropylene beads; air velocity 25 mm/s; FIG. 1
Excerpt: ASTM D 1929: Standard Test Method for Determining Ignition Temperature of Plastics
The objective of this method is to determine at which temperature plastic material (sheet or granules) release flammable gases and vapors to such an extent, that an explosive mixture with air can be formed, that can be ignited with a pilot flame.
This “flash-point” of plastics is an important safety characteristic, which can be used to assess explosion and fire risk in plant where plastic material is processed, handled or stored. The objective of this method is to determine the temperature at which gases and vapors released from plastic sheets or granules spontaneously catch fire, i.e. without contact to an external ignition source. The Self-Ignition Temperature is relevant for the assessment of ignition risks due to hot surfaces in plant where plastic material is processed, e.g. in extruders. The tests are carried out by exposing the test item (sample) in an oven to a controlled stream of hot, fresh air. Ignition is detected by monitoring the temperature of the sample. For flash ignition, a pilot flame above the exhaust of the oven is used. For self-ignition test, no external ignition source is applied. The test are carried out in isothermal mode, i.e. at constant temperature. Several trials, at different temperatures are necessary to find the lowest temperature, at which ignition does occur. […]

Question: Which flash ignition temperature does the source give for `CC1(C)[C@H](C(=O)O[C@H](C#N)c2cccc(Oc3ccccc3)c2)[C@@H]1C=C(Br)Br` [Deltamethrin] here?
Answer: The flash ignition temperature was “higher flash ignition temperature”.

Question: What about the spontaneous ignition temperature of the same compound?
Answer: The spontaneous ignition temperature was “higher spontaneous ignition temperature”.
